Series [1] concerns the target T1, soybean lipoxygenase (LOX) (Glycine max, UniProt P08170).
T1 construct: purchased Sigma Chemical, Co. (St. Louis, MO, USA)
T1 sequence (P08170 1-839): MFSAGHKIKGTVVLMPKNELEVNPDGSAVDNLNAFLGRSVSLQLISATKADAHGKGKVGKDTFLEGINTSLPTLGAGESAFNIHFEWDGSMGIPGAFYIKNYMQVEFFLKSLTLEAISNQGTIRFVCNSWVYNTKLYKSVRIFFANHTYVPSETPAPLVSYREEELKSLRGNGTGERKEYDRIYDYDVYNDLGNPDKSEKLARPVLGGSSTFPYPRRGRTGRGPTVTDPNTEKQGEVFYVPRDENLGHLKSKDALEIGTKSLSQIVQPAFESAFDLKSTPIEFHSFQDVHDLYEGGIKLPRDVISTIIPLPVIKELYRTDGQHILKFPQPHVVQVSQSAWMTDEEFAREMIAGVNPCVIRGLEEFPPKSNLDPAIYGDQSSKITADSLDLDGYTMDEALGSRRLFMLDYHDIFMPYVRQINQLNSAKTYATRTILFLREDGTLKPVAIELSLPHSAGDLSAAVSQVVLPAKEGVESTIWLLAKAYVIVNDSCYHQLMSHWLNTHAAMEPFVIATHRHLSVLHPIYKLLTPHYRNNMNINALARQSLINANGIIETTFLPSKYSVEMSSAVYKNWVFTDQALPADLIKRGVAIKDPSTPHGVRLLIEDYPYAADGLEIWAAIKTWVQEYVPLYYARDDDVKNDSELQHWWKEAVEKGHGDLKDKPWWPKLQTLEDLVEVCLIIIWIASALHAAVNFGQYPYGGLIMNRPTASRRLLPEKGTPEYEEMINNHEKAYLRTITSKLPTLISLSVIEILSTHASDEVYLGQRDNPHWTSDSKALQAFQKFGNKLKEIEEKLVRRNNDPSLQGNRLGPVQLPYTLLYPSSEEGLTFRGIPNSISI
The series can be described thus: in vitro inhibition of soybean lipoxygenase, UV absorbance based enzyme assay. The series is classed as biochemical. The note with it: sodium linoleate 0.1 mM, pH 9; for % LOX Inhibition at 100 Μμ / inhibition at 100 µM: 100 μM compound; for inhibition at 100 µM: read-out: % LOX Inhibition at 100 Μμ. The protocol: Most of the LOX inhibitors are antioxidants or free radical scavengers. LOXs contain a non-heme iron per molecule in the enzyme active site as high-spin Fe^2+ in the native state and the high spin Fe^3+ in the activated state.
A DMSO solution of the tested compound was incubated with sodium linoleate (0.1 mM) and 0.2 mL of soybean LOX solution (1/9 × 10^−4 w/v in saline) in buffer pH 9 (tris) and at room temperature.

In a further series the target is hCA I (Homo sapiens, UniProt P00915). The series can be described thus: stopped flow CO2 hydrase assay, hCA I.
Sequence of hCA I (P00915 whole entry): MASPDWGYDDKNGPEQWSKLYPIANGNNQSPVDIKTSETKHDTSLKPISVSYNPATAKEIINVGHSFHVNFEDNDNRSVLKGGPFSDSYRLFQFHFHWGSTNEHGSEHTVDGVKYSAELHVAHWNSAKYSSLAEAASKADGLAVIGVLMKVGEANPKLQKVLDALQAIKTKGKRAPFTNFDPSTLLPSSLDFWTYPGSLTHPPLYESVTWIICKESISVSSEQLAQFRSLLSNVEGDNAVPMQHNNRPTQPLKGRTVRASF
A further series deals with hCA II (Homo sapiens, UniProt P00918). In words: stopped flow CO2 hydrase assay, hCA II.
For the next series, the target named is hCA IV (Homo sapiens, UniProt P22748). In words: stopped flow CO2 hydrase assay, hCA IV.
Sequence of hCA IV (P22748 19-312): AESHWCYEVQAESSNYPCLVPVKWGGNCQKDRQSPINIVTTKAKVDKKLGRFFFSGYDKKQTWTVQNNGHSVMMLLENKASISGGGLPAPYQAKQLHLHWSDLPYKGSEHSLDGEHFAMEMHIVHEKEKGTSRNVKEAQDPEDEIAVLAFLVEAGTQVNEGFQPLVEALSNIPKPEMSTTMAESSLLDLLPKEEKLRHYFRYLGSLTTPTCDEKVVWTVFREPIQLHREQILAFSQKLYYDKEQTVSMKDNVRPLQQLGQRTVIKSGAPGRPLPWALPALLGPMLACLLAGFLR
Another series has as its target hCA IX (Homo sapiens, UniProt Q16790). In words: stopped flow CO2 hydrase assay, hCA IX.

The source of these data is PMC6017447, “Novel 6- and 7-Substituted Coumarins with Inhibitory Action against Lipoxygenase and Tumor-Associated Carbonic Anhydrase IX” (Molecules : A Journal of Synthetic Chemistry and Natural …, 2018).

Experimental for hCA II: (§1) An Applied Photophysics (Oxford, UK) stopped-flow instrument has been used for assaying the CA catalysed CO2 hydration activity [36]. […] The uncatalyzed rates were determined in the same manner and subtracted from the total observed rates. Stock solutions of inhibitor (0.1 mM) were prepared in distilled-deionized water and dilutions up to 0.01 nM were done thereafter with distilled-deionized water. […] The inhibition constants were obtained by non-linear least-squares methods using PRISM 3, as reported earlier [42, 43, 44, 45, 46, 47, 48, 49, 50] and represent the mean from at least three different determinations. The four CA isoforms were recombinant proteins obtained as reported earlier in our laboratory [42, 43, 44, 45, 46, 47, 48, 49, 50].
Experimental for hCA IV: as §1
Experimental for hCA IX: as §1

For “2-((2-Oxo-2H-chromen-6-yl)oxy)-N-(pyridin-4-ylmethyl)acetamide [Compound 11b]”, the “% LOX Inhibition at 100 Μμ” value in series [1] is recorded as 37%.
Consider “2-((2-Oxo-2H-chromen-7-yl)oxy)-N-(pyridin-4-ylmethyl)acetamide [Compound 11a]”, for which the “% LOX Inhibition at 100 Μμ” value in series [1] was found to be 77%.
As to `O=c1ccc2cc(O)ccc2o1` [Compound 1b, 6-hydroxycoumarin], in series [1], the inhibition (commonly the share of the control response that was lost under treatment) at 100 µM came to 40%.
`O=C(COc1ccc2ccc(=O)oc2c1)NCCc1ccccc1` [Compound 4a, 2-((2-Oxo-2H-chromen-7-yl)oxy)-N-phenethylacetamide]: the melting point (in general, the temperature, or range, at which the solid turns liquid) lay in the range of 178 to 179 °C. Moreover, in series [1], the inhibition at 100 µM stood at 96% and the midpoint of inhibition, the IC50, lay at 10 µM. Moreover, at hCA I, the Ki (in general, a measure of affinity in units of concentration, obtained from inhibition or displacement) was above 10 µM. On hCA II, the Ki was above 10 µM. The same compound gave an inhibition constant (Ki) at hCA IV above 10 µM. Moreover, the Ki at hCA IX was 0.166 µM.
`O=C(COc1ccc2oc(=O)ccc2c1)NCCc1ccccc1` [Compound 4b, 2-((2-Oxo-2H-chromen-6-yl)oxy)-N-phenethylacetamide] displayed a melting point of 150 to 151 °C. In addition, in series [1], the inhibition at 100 µM was 85% and the IC50 (usually the concentration that gives 50% inhibition) came out at 10 µM. For the same compound, the Ki on hCA I is above 10 µM. Moreover, the Ki on hCA II is above 10 µM. The Ki on hCA IV was above 10 µM. Moreover, at hCA IX, the inhibition constant (Ki) came out at 0.0305 µM.
`O=C(COc1ccc2ccc(=O)oc2c1)NCc1ccccc1` [Compound 5a, N-Benzyl-2-((2-oxo-2H-chromen-7-yl)oxy)acetamide] came in with a melting point of 167 to 168 °C. Further, in series [1], the inhibition at 100 µM worked out at 45%. For the same compound, the inhibition constant Ki on hCA I is above 10 µM. This compound also registered a Ki at hCA II above 10 µM. Also, the Ki at hCA IV is above 10 µM. The same compound had a Ki on hCA IX of 0.0837 µM.
The compound `O=C(COc1ccc2oc(=O)ccc2c1)NCc1ccccc1` [Compound 5b, N-Benzyl-2-((2-oxo-2H-chromen-6-yl)oxy)acetamide] showed a melting point of 161 to 162 °C. The inhibition at 100 µM in series [1] is 42%. In addition, the Ki on hCA I is above 10 µM. The compound also registered a Ki on hCA II above 10 µM. On hCA IV, this compound gave a Ki above 10 µM. Also, affinity on hCA IX was put at a Ki of 0.0302 µM.
In the case of `O=C(COc1ccc2ccc(=O)oc2c1)NCc1ccc(F)cc1` [Compound 6a, N-(4-Fluorobenzyl)-2-((2-oxo-2H-chromen-7-yl)oxy)acetamide], the melting point lay in the range of 160 to 161 °C. Moreover, in series [1], the inhibition at 100 µM worked out at 63% and the IC50 stood at 47 µM. Further, the Ki on hCA I is above 10 µM. The compound further yielded a Ki on hCA II above 10 µM. The compound also gave a Ki at hCA IV above 10 µM. Further, the affinity on hCA IX, expressed as Ki, was 2.54 µM.
`O=C(COc1ccc2oc(=O)ccc2c1)NCc1ccc(F)cc1` [Compound 6b, N-(4-Fluorobenzyl)-2-((2-oxo-2H-chromen-6-yl)oxy)acetamide] came in with a melting point of 158 to 159 °C. In addition, the inhibition at 100 µM in series [1] came to 26%. Besides, the Ki on hCA I is above 10 µM. Besides, the Ki on hCA II was above 10 µM. On hCA IV, this compound registered a Ki above 10 µM. On hCA IX, this compound registered a Ki of 2.78 µM.
For `O=C(COc1ccc2ccc(=O)oc2c1)Nc1ccccc1` [Compound 7a, 2-((2-Oxo-2H-chromen-7-yl)oxy)-N-phenylacetamide], the melting point is 182 to 183 °C. In addition, in series [1], the inhibition at 100 µM is 50% and the midpoint of inhibition, the IC50, lay at 100 µM. Also, the Ki at hCA I was above 10 µM. The compound further displayed a Ki on hCA II above 10 µM. Moreover, the Ki on hCA IV was above 10 µM. For the same compound, the inhibitory constant (Ki) on hCA IX was determined as 0.201 µM.
`O=C(COc1ccc2oc(=O)ccc2c1)Nc1ccccc1` [Compound 7b, 2-((2-Oxo-2H-chromen-6-yl)oxy)-N-phenylacetamide] showed a melting point of 182 to 183 °C. Also, the inhibition at 100 µM in series [1] stood at 45%. Further, the Ki on hCA I was above 10 µM. On hCA II, this compound returned a Ki above 10 µM. On hCA IV, this compound displayed an inhibition constant (Ki) of 2.65 µM. The compound also showed a Ki on hCA IX of 0.202 µM.
The compound `O=C(COc1ccc2ccc(=O)oc2c1)Nc1ccc(F)cc1` [Compound 8a, N-(4-Fluorophenyl)-2-((2-oxo-2H-chromen-7-yl)oxy)acetamide] gave a melting point of 208 to 209 °C. In addition, the inhibition at 100 µM in series [1] is 43%. This compound came in with a Ki at hCA I above 10 µM. At hCA II, this compound gave a Ki above 10 µM. Moreover, affinity on hCA IV was put at a Ki of 0.35 µM. In addition, the inhibitory constant (Ki) on hCA IX worked out at 0.136 µM.
`O=C(COc1ccc2oc(=O)ccc2c1)Nc1ccc(F)cc1` [Compound 8b, N-(4-Fluorophenyl)-2-((2-oxo-2H-chromen-6-yl)oxy)acetamide] registered a melting point of 206 to 207 °C. The inhibition at 100 µM in series [1] was determined as 11%. Moreover, the inhibition constant Ki on hCA I was above 10 µM. For the same compound, on hCA II, the inhibitory constant (Ki) was above 10 µM. Further, on hCA IV, the Ki was determined as 0.848 µM. The same compound showed a Ki at hCA IX of 0.146 µM.
Turning to `COC(=O)c1ccccc1NC(=O)COc1ccc2ccc(=O)oc2c1` [Compound 9a, Methyl 2-(2-((2-oxo-2H-chromen-7-yl)oxy)acetamido)benzoate], the melting point is 213 to 214 °C. Besides, the inhibition at 100 µM in series [1] stood at 33%. Besides, on hCA I, the Ki was above 10 µM. Moreover, at hCA II, the Ki was above 10 µM. For the same compound, the Ki at hCA IV was above 10 µM. In addition, the Ki at hCA IX was 2.73 µM.
In turn, `COC(=O)c1ccccc1NC(=O)COc1ccc2oc(=O)ccc2c1` [Compound 9b, Methyl 2-(2-((2-oxo-2H-chromen-6-yl)oxy)acetamido)benzoate] returned a melting point of 213 to 214 °C. Besides, in series [1], the inhibition at 100 µM is 50% and half-maximal inhibition (IC50) required 100 µM. The same compound came in with a Ki on hCA I above 10 µM. The same compound registered a Ki on hCA II above 10 µM. On hCA IV, this compound came in with a Ki above 10 µM. Besides, the inhibition constant (Ki) at hCA IX is 2.04 µM.
`O=C(COc1ccc2ccc(=O)oc2c1)NCCc1ccccn1` [Compound 10a, 2-((2-Oxo-2H-chromen-7-yl)oxy)-N-(2-(pyridin-2-yl)ethyl)acetamide] returned a melting point of 138 to 139 °C. Also, in series [1], the inhibition at 100 µM was 79% and half-maximal inhibition (IC50) was put at 15 µM. This compound also returned a Ki on hCA I above 10 µM. Also, the Ki on hCA II is above 10 µM. Further, the Ki at hCA IV is above 10 µM. The Ki at hCA IX was found to be 2.38 µM.
Take `O=C(COc1ccc2oc(=O)ccc2c1)NCCc1ccccn1` [Compound 10b, 2-((2-Oxo-2H-chromen-6-yl)oxy)-N-(2-(pyridin-2-yl)ethyl)acetamide]: the melting point lay in the range of 141 to 142 °C. The inhibition at 100 µM in series [1] is 40%. At hCA I, this compound returned a Ki above 10 µM. Further, the Ki on hCA II is above 10 µM. Further, the Ki on hCA IV is above 10 µM. For the same compound, on hCA IX, the affinity, expressed as Ki, was 2.15 µM.
Compound `O=C(COc1ccc2ccc(=O)oc2c1)NCCN1CCOCC1` [Compound 12a, N-(2-Morpholinoethyl)-2-((2-oxo-2H-chromen-7-yl)oxy)acetamide] gave a melting point of 148 to 149 °C. Also, in series [1], the inhibition at 100 µM came to 56% and it took 42.5 µM to reach half-maximal inhibition (IC50). In addition, at hCA I, the Ki is above 10 µM. On hCA II, this compound gave a Ki above 10 µM. The compound further gave an inhibitory constant (Ki) on hCA IV above 10 µM. In addition, on hCA IX, the Ki was above 10 µM.
In the case of `O=C(COc1ccc2oc(=O)ccc2c1)NCCN1CCOCC1` [Compound 12b, N-(2-Morpholinoethyl)-2-((2-oxo-2H-chromen-6-yl)oxy)acetamide], the melting point fell in the range of 149 to 150 °C. Moreover, in series [1], the inhibition at 100 µM worked out at 64% and the IC50 was found to be 16.5 µM. For the same compound, the Ki on hCA I is above 10 µM. Moreover, the Ki on hCA II was above 10 µM. Further, the Ki on hCA IV is above 10 µM. Further, the Ki on hCA IX was above 10 µM.
The compound `O=C(COc1ccc2ccc(=O)oc2c1)NCCN1CCCCC1` [Compound 13a, 2-((2-Oxo-2H-chromen-7-yl)oxy)-N-(2-(piperidin-1-yl)ethyl)acetamide] yielded a melting point of 116 to 117 °C. For the same compound, in series [1], the inhibition at 100 µM was 50% and the half-inhibitory concentration (IC50) was found to be 100 µM. The compound further returned a Ki at hCA I above 10 µM. The Ki at hCA II is above 10 µM. For the same compound, at hCA IV, the Ki is above 10 µM. Besides, on hCA IX, the Ki came to 1.97 µM.
